The source of these data is patent US20260364215A1, “Radiopharmaceutical Compositions Targeting Ephrin Type-A Receptor 2 and Uses Thereof” (PeptiDream Inc., priority 2022, published 2026).

Read-outs that look alike come from different tables or passages of the source. Numbered stars: 1 amine (or outer) side, 2 acyl side, 3 side chain; on linkers, the order of the positions; unused ones are H or OH. Bridge positions count the residues as written; N and C are the ends. Square brackets hold non-standard residues; d marks the D form. Side chains are listed from the residue outwards. Peptide text beside a SMILES is read from it. * marks the point of attachment. DOTA(Lu) = O=C1CN2CCN3CCN(CC(=O)*)CCN(CC2)CC(=O)[O][Lu]([O]1)[O]C(=O)C3; NH(1-deoxy-D-glucityl) = OC[C@@H](O)[C@@H](O)[C@H](O)[C@@H](O)CN*; DOTA = O=C(O)CN1CCN(CC(=O)O)CCN(CC(=O)*)CCN(CC(=O)O)CC1; Trp(1-Me,7-Cl) = Cn1cc(C[C@H](N)C(=O)O)c2cccc(Cl)c21; dPhe(3-CONH2) = NC(=O)c1cccc(C[C@@H](N)C(=O)O)c1; NMePhe(3-CN) = CN[C@@H](Cc1cccc(C#N)c1)C(=O)O; Piperazinyl(4-CH2COOH) = O=C(O)CN1CCN(*)CC1; Trp(1-Me) = Cn1cc(C[C@H](N)C(=O)O)c2ccccc21; NMemTyr = CN[C@@H](Cc1cccc(O)c1)C(=O)O; NMe3Pal = CN[C@@H](Cc1cccnc1)C(=O)O; Gly(cBu) = N[C@H](C(=O)O)C1CCC1; NMeE = CN[C@@H](CCC(=O)O)C(=O)O; Aad = N[C@@H](CCCC(=O)O)C(=O)O; NMeN = CN[C@@H](CC(N)=O)C(=O)O; CO = O=C([*:1])[*:2]

The target of the experiment is T1, Recombinant Human EphA2 Fc Protein (Homo sapiens, UniProt P29317).
T1 construct: purchased Elabscience
T1 sequence (P29317 24-534 limits assumed): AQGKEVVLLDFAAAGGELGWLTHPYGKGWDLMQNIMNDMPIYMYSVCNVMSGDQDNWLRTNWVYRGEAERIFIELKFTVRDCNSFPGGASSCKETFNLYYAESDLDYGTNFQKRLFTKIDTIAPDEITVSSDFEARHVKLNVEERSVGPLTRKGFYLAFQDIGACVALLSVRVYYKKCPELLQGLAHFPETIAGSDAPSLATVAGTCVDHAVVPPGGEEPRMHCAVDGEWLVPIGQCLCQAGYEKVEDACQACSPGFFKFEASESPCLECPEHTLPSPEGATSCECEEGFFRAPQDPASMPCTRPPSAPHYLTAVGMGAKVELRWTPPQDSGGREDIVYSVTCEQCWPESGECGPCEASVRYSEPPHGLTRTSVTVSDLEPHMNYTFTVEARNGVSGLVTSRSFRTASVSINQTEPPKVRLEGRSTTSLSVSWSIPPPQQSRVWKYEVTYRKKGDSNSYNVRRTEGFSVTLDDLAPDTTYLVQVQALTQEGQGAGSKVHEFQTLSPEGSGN
In words: Interaction analysis (kinetics, KD) of peptides and conjugates against EphA2 by SPR, Biacore T200, single-cycle kinetics (Examples B15 and B22). It counts as binding. The method, then:
Example B15. Interaction Analysis by SPR was Performed Using Biacore (Cytiva)
SPR assay was performed using Biacore T200 (Cytiva).
The HBS-P+ buffer (10 mM HEPES (pH7.4), 150 mM NaCl, 0.05% (v/v) Surfactant P20) containing 1% DMSO was used as running buffer. Recombinant Human EphA2 Fc Protein (Fc tag, Elabscience) was captured by Human Antibody Capture kit (Cytiva). Peptide samples in DMSO were diluted with running buffer, and prepared five serial dilutions. Using these serial dilutions, kinetics of peptides against EphA2 was measured at a flow rate of […] at 25 °C. The method adopted for sample measurement was a single-cycle kinetics method. The analysis was conducted using the evaluation software 3.0 provided with Biacore T200. Kinetics fitting was done on the difference data obtained by subtracting the baseline data from sample measurement data. KD values were calculated based on the association rate constant (ka) and dissociation rate constant (kd).
Example B22: Interaction Analysis of Conjugates by SPR was Performed Using Biacore (Cytiva)
SPR assay was performed using Biacore T200 (Cytiva) according to Example B15.

[1] abbreviates: peptides, Biacore T200, 25 °C, Table B12, read-out: SPR Kd.

Take `C[C@@H](O)[C@@H]1NC(=O)[C@H](Cc2cn(C)c3ccccc23)NC(=O)[C@H](CCC(=O)NC[C@H](O)[C@@H](O)[C@H](O)[C@H](O)CO)NC(=O)[C@H](Cc2cn(C)c3c(Cl)cccc23)NC(=O)[C@H](Cc2cccnc2)N(C)C(=O)[C@H](CCCC(N)=O)NC(=O)[C@H](C2CCC2)NC(=O)[C@H](CC(N)=O)NC(=O)[C@H](Cc2cccnc2)N(C)C(=O)[C@@H](Cc2cccc(C(N)=O)c2)NC(=O)CSC[C@@H](C(N)=O)NC(=O)[C@H](CCCC(N)=O)NC1=O` [PDC_EphA2-00019437] ({CH2CO}-[dPhe(3-CONH2)][NMe3Pal]N[Gly(cBu)][Aad](NH2)[NMe3Pal][Trp(1-Me,7-Cl)]E(NH(1-deoxy-D-glucityl))[Trp(1-Me)]T[Aad](NH2)C-NH2; thioether N-12): the Kd under setting [1] was less than 1 nM.

With `C[C@@H](O)[C@@H]1NC(=O)[C@H](Cc2cn(C)c3ccccc23)NC(=O)[C@H](CCCCNC(=O)N2CCN(CC(=O)O)CC2)NC(=O)[C@H](Cc2cn(C)c3c(Cl)cccc23)NC(=O)[C@H](Cc2cccnc2)N(C)C(=O)[C@H](CCCC(N)=O)NC(=O)[C@H](C2CCC2)NC(=O)[C@H](CC(N)=O)NC(=O)[C@H](Cc2cccnc2)N(C)C(=O)[C@@H](Cc2cccc(C(N)=O)c2)NC(=O)CSC[C@@H](C(N)=O)NC(=O)[C@H](CCCC(N)=O)NC1=O` [PDC_EphA2-00019438] ({CH2CO}-[dPhe(3-CONH2)][NMe3Pal]N[Gly(cBu)][Aad](NH2)[NMe3Pal][Trp(1-Me,7-Cl)]K([CO-Piperazinyl(4-CH2COOH)])[Trp(1-Me)]T[Aad](NH2)C-NH2; thioether N-12), under setting [1], the Kd is less than 1 nM. Take `C[C@@H](O)[C@@H]1NC(=O)[C@H](Cc2cn(C)c3ccccc23)NC(=O)[C@H](CCC(=O)NC[C@H](O)[C@@H](O)[C@H](O)[C@H](O)CO)NC(=O)[C@H](Cc2cn(C)c3c(Cl)cccc23)NC(=O)[C@H](CC(N)=O)N(C)C(=O)[C@H](CCCC(N)=O)NC(=O)[C@H](C2CCC2)NC(=O)[C@H](CC(N)=O)NC(=O)[C@H](Cc2cccnc2)N(C)C(=O)[C@@H](Cc2cccc(C(N)=O)c2)NC(=O)CSC[C@@H](C(=O)N[C@H](CCCCNC(=O)CN2CCN3CCN4CCN(CC2)CC(=O)[O][Lu]([O]C(=O)C3)[O]C(=O)C4)C(N)=O)NC(=O)[C@H](CCCC(N)=O)NC1=O` [PDC_EphA2-00022593-C302] ({CH2CO}-[dPhe(3-CONH2)][NMe3Pal]N[Gly(cBu)][Aad](NH2)[NMeN][Trp(1-Me,7-Cl)]E(NH(1-deoxy-D-glucityl))[Trp(1-Me)]T[Aad](NH2)C[dK](DOTA(Lu))-NH2; thioether N-12): the Kd is less than 1 nM. Consider `C[C@@H](O)[C@@H]1NC(=O)[C@H](Cc2cn(C)c3ccccc23)NC(=O)[C@H](CCC(=O)NC[C@H](O)[C@@H](O)[C@H](O)[C@H](O)CO)NC(=O)[C@H](Cc2cn(C)c3c(Cl)cccc23)NC(=O)[C@H](CC(N)=O)N(C)C(=O)[C@H](CCC(=O)NC[C@H](O)[C@@H](O)[C@H](O)[C@H](O)CO)NC(=O)[C@H](C2CCC2)NC(=O)[C@H](CC(N)=O)NC(=O)[C@H](Cc2cccnc2)N(C)C(=O)[C@@H](Cc2cccc(C(N)=O)c2)NC(=O)CSC[C@@H](C(=O)N[C@H](CCCCNC(=O)CN2CCN3CCN4CCN(CC2)CC(=O)[O][Lu]([O]C(=O)C3)[O]C(=O)C4)C(N)=O)NC(=O)[C@H](CCCC(N)=O)NC1=O` [PDC_EphA2-00022594-C302] ({CH2CO}-[dPhe(3-CONH2)][NMe3Pal]N[Gly(cBu)]E(NH(1-deoxy-D-glucityl))[NMeN][Trp(1-Me,7-Cl)]E(NH(1-deoxy-D-glucityl))[Trp(1-Me)]T[Aad](NH2)C[dK](DOTA(Lu))-NH2; thioether N-12), for which the Kd is less than 1 nM. On the same count and under the same terms, the same measure for `C[C@@H](O)[C@@H]1NC(=O)[C@H](Cc2cn(C)c3ccccc23)NC(=O)[C@H](CCC(=O)NC[C@H](O)[C@@H](O)[C@H](O)[C@H](O)CO)NC(=O)[C@H](Cc2cn(C)c3ccccc23)NC(=O)[C@H](CC(N)=O)N(C)C(=O)[C@H](CCCC(N)=O)NC(=O)[C@H](C2CCC2)NC(=O)[C@H](CC(N)=O)NC(=O)[C@H](Cc2cccnc2)N(C)C(=O)[C@@H](Cc2cccc(C(N)=O)c2)NC(=O)CSC[C@@H](C(=O)N[C@H](CCCCNC(=O)CN2CCN3CCN4CCN(CC2)CC(=O)[O][Lu]([O]C(=O)C3)[O]C(=O)C4)C(N)=O)NC(=O)[C@H](CCCC(N)=O)NC1=O` [PDC_EphA2-00022595-C302] ({CH2CO}-[dPhe(3-CONH2)][NMe3Pal]N[Gly(cBu)][Aad](NH2)[NMeN][Trp(1-Me)]E(NH(1-deoxy-D-glucityl))[Trp(1-Me)]T[Aad](NH2)C[dK](DOTA(Lu))-NH2; thioether N-12): less than 1 nM. Still for that read-out and setting: the same measure for `C[C@@H](O)[C@@H]1NC(=O)[C@H](Cc2cn(C)c3ccccc23)NC(=O)[C@H](CCCCNC(=O)N2CCN(CC(=O)O)CC2)NC(=O)[C@H](Cc2cn(C)c3c(Cl)cccc23)NC(=O)[C@H](CCC(=O)O)N(C)C(=O)[C@H](CCCC(N)=O)NC(=O)[C@H](C2CCC2)NC(=O)[C@H](CC(N)=O)NC(=O)[C@H](Cc2cccc(C#N)c2)N(C)C(=O)[C@@H](Cc2cccc(C(N)=O)c2)NC(=O)CSC[C@@H](C(=O)N[C@H](CCCCNC(=O)CN2CCN3CCN4CCN(CC2)CC(=O)[O][Lu]([O]C(=O)C3)[O]C(=O)C4)C(N)=O)NC(=O)[C@H](CCCC(N)=O)NC1=O` [PDC_EphA2-00022612-C302] ({CH2CO}-[dPhe(3-CONH2)][NMePhe(3-CN)]N[Gly(cBu)][Aad](NH2)[NMeE][Trp(1-Me,7-Cl)]K([CO-Piperazinyl(4-CH2COOH)])[Trp(1-Me)]T[Aad](NH2)C[dK](DOTA(Lu))-NH2; thioether N-12): less than 1 nM; for `C[C@@H](O)[C@@H]1NC(=O)[C@H](Cc2cn(C)c3ccccc23)NC(=O)[C@H](CCCCNC(=O)N2CCN(CC(=O)O)CC2)NC(=O)[C@H](Cc2cn(C)c3c(Cl)cccc23)NC(=O)[C@H](CCC(=O)O)N(C)C(=O)[C@H](CCCC(N)=O)NC(=O)[C@H](C2CCC2)NC(=O)[C@H](CC(N)=O)NC(=O)[C@H](Cc2cccc(O)c2)N(C)C(=O)[C@@H](Cc2cccc(C(N)=O)c2)NC(=O)CSC[C@@H](C(=O)N[C@H](CCCCNC(=O)CN2CCN3CCN4CCN(CC2)CC(=O)[O][Lu]([O]C(=O)C3)[O]C(=O)C4)C(N)=O)NC(=O)[C@H](CCCC(N)=O)NC1=O` [PDC_EphA2-00022613-C302] ({CH2CO}-[dPhe(3-CONH2)][NMemTyr]N[Gly(cBu)][Aad](NH2)[NMeE][Trp(1-Me,7-Cl)]K([CO-Piperazinyl(4-CH2COOH)])[Trp(1-Me)]T[Aad](NH2)C[dK](DOTA(Lu))-NH2; thioether N-12): less than 1 nM. In the case of `C[C@@H](O)[C@@H]1NC(=O)[C@H](Cc2cn(C)c3ccccc23)NC(=O)[C@H](CCC(=O)NC[C@H](O)[C@@H](O)[C@H](O)[C@H](O)CO)NC(=O)[C@H](Cc2cn(C)c3c(Cl)cccc23)NC(=O)[C@H](Cc2cccnc2)N(C)C(=O)[C@H](CCCC(N)=O)NC(=O)[C@H](C2CCC2)NC(=O)[C@H](CC(N)=O)NC(=O)[C@H](Cc2cccc(C#N)c2)N(C)C(=O)[C@@H](Cc2cccc(C(N)=O)c2)NC(=O)CSC[C@@H](C(=O)N[C@H](CCCCNC(=O)CN2CCN(CC(=O)O)CCN(CC(=O)O)CCN(CC(=O)O)CC2)C(N)=O)NC(=O)[C@H](CCCC(N)=O)NC1=O.[Lu+3]` [PDC_EphA2-00022614-C302] ({CH2CO}-[dPhe(3-CONH2)][NMePhe(3-CN)]N[Gly(cBu)][Aad](NH2)[NMe3Pal][Trp(1-Me,7-Cl)]E(NH(1-deoxy-D-glucityl))[Trp(1-Me)]T[Aad](NH2)C[dK](DOTA)-NH2; thioether N-12), the Kd (conjugates, Biacore T200 according to Example B15, Table B16, read-out: SPR Kd) was less than 1 nM.
